Data: patent US9062032B2, “Aminoalkyl-substituted N-thienylbenzamide derivative” (ASTELLAS PHARMA INC., priority 2011, dated 2015)
Counter-ions that a name gives are not always drawn.

Legend:
rat NPT-IIb = target: T1, rat NPT-IIb (Rattus norvegicus, UniProt Q9JJ09); assay: Inhibitory action against 33P-phosphate uptake into rat NPT-IIb expression cell; assay type: cell-based; details: HEK293; compound concentration 1 μM; rat NPT-IIb stable expression 293 cells; read-out: Int. 1 (%): inhibition rate of the 33P-phosphate uptake into the rat NPT-IIb
T1 construct: rat NPT-IIb ORF was cloned into p3×FLAG-CMV-10 by PCR; expressed in transfected cells
T1 sequence (Q9JJ09 1-695): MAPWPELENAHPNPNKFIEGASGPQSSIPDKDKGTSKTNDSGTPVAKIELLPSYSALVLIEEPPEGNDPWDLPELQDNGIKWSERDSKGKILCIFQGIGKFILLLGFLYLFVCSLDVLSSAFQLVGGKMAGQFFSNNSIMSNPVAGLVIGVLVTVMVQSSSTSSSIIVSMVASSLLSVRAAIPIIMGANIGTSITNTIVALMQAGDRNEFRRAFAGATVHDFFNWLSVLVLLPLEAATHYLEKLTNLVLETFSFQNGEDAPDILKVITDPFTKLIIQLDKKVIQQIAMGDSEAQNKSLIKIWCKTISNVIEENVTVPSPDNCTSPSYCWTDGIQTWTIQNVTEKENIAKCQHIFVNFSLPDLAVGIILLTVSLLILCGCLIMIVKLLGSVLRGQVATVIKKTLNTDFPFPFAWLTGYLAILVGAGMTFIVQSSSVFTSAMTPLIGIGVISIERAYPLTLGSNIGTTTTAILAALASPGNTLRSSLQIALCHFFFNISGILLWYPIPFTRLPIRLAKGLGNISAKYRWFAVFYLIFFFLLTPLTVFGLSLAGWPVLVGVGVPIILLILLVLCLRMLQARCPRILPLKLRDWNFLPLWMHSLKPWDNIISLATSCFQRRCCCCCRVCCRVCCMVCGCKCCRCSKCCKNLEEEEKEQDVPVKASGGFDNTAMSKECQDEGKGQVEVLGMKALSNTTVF
Text: Inhibitory Action Against ^33P-Phosphate Uptake into Rat NPT-IIb Expression Cell
(1) Preparation of Rat NPT-IIb Expression Cell
A rat small intestine cDNA library was used as a template, and rat NPT-IIb ORF was cloned into p3×FLAG-CMV-10 by PCR according to the prescribed method. Thereafter, 293 cells were transfected with the cloned rat NPT-IIb expression plasmid, thereby obtaining a rat NPT-IIb stable expression cell line by using G418.
(2) Evaluation System for Inhibition of Phosphate Uptake into Rat NPT-IIb Expression Cell
The rat NPT-IIb expression cells were seeded to a 96-well plate, followed by incubation overnight. Thereafter, the culture medium was removed, the plate was washed with buffer A (137 mM N-methyl-D-glucamine, 5.4 mM KCl, 2.8 mM CaCl2, 1.2 mM MgCl2, and 10 mM HEPES (adjusted to pH 7.4 using HCl)), and then buffer B (137 mM NaCl, 5.4 mM KCl, 2.8 mM CaCl2, 1.2 mM MgCl2, 0.1 mM KH2PO4, and 10 mM HEPES (adjusted to pH 7.4 using KOH)) was added thereto. Subsequently, a compound with a concentration of 10 times the evaluation concentration was prepared by dilution with the buffer B and added thereto. After the resultant was incubated in a CO2 incubator, the buffer B supplemented 50 μCi/mL of ^33P was added thereto, and then the resultant was incubated again in a CO2 incubator. After the reaction, the buffer was removed, the plate was washed with buffer C (137 mM NaCl, 10 mM Tris/HCl, pH 7.2). Thereafter, MicroScint-20 was added thereto, and ^33P uptake was measured using TopCount. An inhibition rate was calculated by the following formula. Inhibition rate (%)=(1−(^33P uptake of well treated with chemical)/(^33P uptake of DMSO-added well))×100
Table 1 illustrates examples of the inhibition rate (Int. 1) of the ^33P-phosphate uptake into the rat NPT-IIb in some of the compounds of the present invention at a concentration of drug efficacy evaluation of 1 μM. Here, Ex represents the number of example compounds described later (the same shall apply hereinafter).

[1] = test system: phosphate absorption from the intestinal tract; assay: Action of inhibiting increase in blood radioactivity in rat orally loaded with 32P phosphate (phosphate absorption inhibitory action); assay type: in vivo; details: male Wistar rats, 3 mg/kg oral, 32P phosphate load 5 min after dosing, serum radioactivity AUC0-30 min
Procedure: Action of Inhibiting Increase in Blood Radioactivity in Rat Orally Loaded with ^32P Phosphate (Phosphate Absorption Inhibitory Action)
Male Wistar rats (6- to 7-week old) were fasted for 24 hours and then used as experimental animals. The compound was suspended or dissolved with a solvent, and was used at a concentration of 0.6 mg/mL. The compound was forcibly orally administered at a dose of 3 mg/kg to the animals of a compound-administered group. Control-group animals were administered a solvent containing no compound at a dose of 5 mL/kg. After 5 minutes from administration of the compound or the solvent, a ^32P-containing phosphate solution (8.3 mM NaH2PO4) was orally administered thereto at a dose of 7.2 mL/kg. After 15 minutes and 30 minutes, the blood was taken from the orbital venous plexus and the serum was collected. Radioactivity in 0.1 mL of the serum was measured by a liquid scintillation counter. AUC0-30 min in calculated from the measured counts was considered as a phosphate absorption amount. The phosphate absorption inhibitory rate was determined from the AUC0-30 min value according to the following formula. Inhibition rate of phosphate absorption (%)=(1−phosphate absorption count of compound-administered group/phosphate absorption count of standard group)×100
Table 2 illustrates examples of the inhibition rate (Int. 2) of phosphate absorption in regard to some of the compounds of Formula (I).

inhibition at 1 µM (rat NPT-IIb) | SMILES | Int. 2 (%): inhibition rate of phosphate absorption [1]
65% | CCC(CC)N(CCN(C)C(=O)CCC(=O)O)Cc1cccc(C(=O)Nc2sc3c(c2C(=O)Nc2ccc(CCc4ccc(C(=O)O)cc4)cc2)CCCCCC3)c1 [Example 43] | –
87% | CCC(CC)N(CCN(C)C(=O)CCC(=O)O)Cc1cccc(C(=O)Nc2sc3c(c2C(=O)Nc2ccc(CCc4ccc(C(=O)O)cc4)cc2)CCCC3)c1.Cl [Example 2, 4-(2-{4-[({2-[(3-{[{2-[(3-carboxypropanoyl)(methyl)amino]ethyl}(pentan-3-yl)amino]methyl}benzoyl)amino]-4,5,6,7-tetrahydro-1-benzothiophen-3-yl}carbonyl)amino]phenyl}ethyl)benzoic acid hydrochloride] | >60%
85% | CCC(CC)N(CCN(C)C(=O)CCC(=O)O)Cc1cccc(C(=O)Nc2sc3c(c2C(=O)Nc2ccc(CCCc4ccc(C(=O)O)cc4)cc2)CCCC3)c1 [Example 53] | –
75% | CCC(CC)N(CCc1cccc(C(=O)Nc2sc3c(c2C(=O)Nc2ccc(CCc4ccc(C(=O)O)cc4)cc2)CCCC3)c1)CCN(C)C(=O)CCC(=O)O [Example 79] | –
76% | CCC(CC)N(CCCN(C)C(=O)CCC(=O)O)Cc1cccc(C(=O)Nc2sc3c(c2C(=O)Nc2ccc(CCc4ccc(C(=O)O)cc4)cc2)CCCC3)c1.Cl [Example 66] | 59%
61% | CC(C)N(CCN(C)C(=O)CCC(=O)O)Cc1cccc(C(=O)Nc2sc3c(c2C(=O)Nc2ccc(CCc4ccc(C(=O)O)cc4)cc2)CCCC3)c1 [Example 38] | –
86% | CCC(CC)N(CCN(CCOC)C(=O)CCC(=O)O)Cc1cccc(C(=O)Nc2sc3c(c2C(=O)Nc2ccc(CCc4ccc(C(=O)O)cc4)cc2)CCCC3)c1.Cl [Example 60] | 56%

More lines, now with the values behind:

SMILES | inhibition at 1 µM (rat NPT-IIb) | Int. 2 (%): inhibition rate of phosphate absorption [1]
CCC(CC)N(CCN(C)C(=O)OCC(=O)O)Cc1cccc(C(=O)Nc2sc3c(c2C(=O)Nc2ccc(CCc4ccc(C(=O)O)cc4)cc2)CCCC3)c1.Cl [Example 4, 4-(2-{4-[({2-[(3-{[(2-{[(carboxymethoxy)carbonyl](methyl)amino}ethyl)(pentan-3-yl)amino]methyl}benzoyl)amino]-4,5,6,7-tetrahydro-1-benzothiophen-3-yl}carbonyl)amino]phenyl}ethyl)benzoic acid hydrochloride] | 77% | 53%
CCC(CC)N(CCN(C)C(=O)CCC(C)(C)C(=O)O)Cc1cccc(C(=O)Nc2sc3c(c2C(=O)Nc2ccc(CCc4ccc(C(=O)O)cc4)cc2)CCCC3)c1 [Example 67, 4-(2-{4-[({2-[(3-{[{2-[(4-carboxy-4-methylpentanoyl)(methyl)amino]ethyl}(pentan-3-yl)amino]methyl}benzoyl)amino]-4,5,6,7-tetrahydro-1-benzothiophen-3-yl}carbonyl)amino]phenyl}ethyl)benzoic acid hydrochloride] | 89% | –
CCC(CC)N(CCN(C)C(=O)CCC(=O)O)Cc1cccc(C(=O)Nc2sc(C3CCCCC3)cc2C(=O)Nc2ccc(CCc3ccc(C(=O)O)cc3)cc2)c1 [Example 41] | 73% | –
CCC(CC)N(Cc1cccc(C(=O)Nc2sc3c(c2C(=O)Nc2ccc(CCc4ccc(C(=O)O)cc4)cc2)CCCC3)c1)C(=O)CCC(C)(C)C(=O)O [Example 109, 4-(2-{4-[({2-[(3-{[(4-carboxy-4-methylpentanoyl)(pentan-3-yl)amino]methyl}benzoyl)amino]-4,5,6,7-tetrahydro-1-benzothiophen-3-yl}carbonyl)amino]phenyl}ethyl)benzoic acid] | 86% | –
CCC(CC)N(CCN(C)C(=O)CCC(=O)O)Cc1cc(C(=O)Nc2sc3c(c2C(=O)Nc2ccc(CCc4ccc(C(=O)O)cc4)cc2)CCCC3)ccn1 [Example 99] | 71% | –
CN(CCN(Cc1cccc(C(=O)Nc2sc3c(c2C(=O)Nc2ccc(CCc4ccc(C(=O)O)cc4)cc2)CCCC3)c1)C1CC1)C(=O)CCC(=O)O [Example 37] | 77% | –
CCC(CC)N(CCN(C)C(=O)CCC(=O)O)Cc1cccc(C(=O)Nc2sc3c(c2C(=O)Nc2ccc(CCc4ccc(C(=O)O)cc4)nc2)CCCC3)c1 [Example 96] | 70% | –
CC(C)N(Cc1cccc(C(=O)Nc2sc3c(c2C(=O)Nc2ccc(CCc4ccc(C(=O)O)cc4)cc2)CCCC3)c1)[C@H]1CC[C@H](C(=O)O)CC1 [Example 172] | 48% | –
CCC(CC)N(Cc1cccc(C(=O)Nc2sc3c(c2C(=O)Nc2ccc(CCc4ccc(C(=O)O)cc4)cc2)CCCC3)c1)C(=O)CC(C)(C)CC(=O)O [Example 121, 4-(2-{4-[({2-[(3-{[(4-carboxy-3,3-dimethylbutanoyl)(pentan-3-yl)amino]methyl}benzoyl)amino]-4,5,6,7-tetrahydro-1-benzothiophen-3-yl}carbonyl)amino]phenyl}ethyl)benzoic acid] | 79% | –
CCN(CCN(Cc1cccc(C(=O)Nc2sc3c(c2C(=O)Nc2ccc(CCc4ccc(C(=O)O)cc4)cc2)CCCC3)c1)C1CC1)C(=O)CCC(=O)O [Example 31] | 87% | –
CC(C)[C@@H](C)N(CCN(C)C(=O)CCC(=O)O)Cc1cccc(C(=O)Nc2sc3c(c2C(=O)Nc2ccc(CCc4ccc(C(=O)O)cc4)cc2)CCCC3)c1 [Example 70] | 60% | –
